Laboratory results published in US10766865B2, “PKM2 modulators and methods for their use” (TOLERO PHARMACEUTICALS, INC., priority 2012, dated 2020).

How the values were obtained:
[1] = system: PC3 cells; assay: Cell Proliferation Assay, PC3; assay type: cell-based; conditions: Homo sapiens, PC-3; PC3, BME media lacking nonessential amino acids, 72 hours, ATPlite; read-out: Percent viability (EC50), Average
Protocol: Cells were seeded at 5000 cells per well (in 96-well plate) in BME media lacking nonessential amino acids+5% dialyzed serum. After 18 hours, DMSO or compound in 0.1% final concentration DMSO was added.
Percent viability (EC50) of A549 and PC3 cells was tested against certain exemplary compounds according to the above general procedures.

[2] = system: 22RV1; assay: Cell line sensitivity (viability, ATPlite); assay type: cell-based; conditions: Homo sapiens; 22RV1, Prostate; BME media, 72 hours; read-out: Sensitivity to Example 1 (IC50)
Protocol: (§1) Viability effect of Example 1 against a subset of lung carcinoma cell lines was determined as follows. Cells were seeded at 1500 cells per well in 384-well plates in BME media, and compound was added in 0.1% DMSO 18 hours later. Viability was determined by ATPlite assay after 72 hours. (See FIG. 4C).
(§2) Example 1 was tested against an expanded panel of cell lines according to the above procedure.

[3] = system: A172; assay: Cell line sensitivity (viability, ATPlite); assay type: cell-based; conditions: Homo sapiens, A 172; A172, Brain; BME media, 72 hours; read-out: Sensitivity to Example 1 (IC50)
Protocol: as §1, §2

[4] = system: A498; assay: Cell line sensitivity (viability, ATPlite); assay type: cell-based; conditions: Homo sapiens; A498, Kidney; BME media, 72 hours; read-out: Sensitivity to Example 1 (IC50)
Protocol: as §1, §2

[5] = system: Caki-1; assay: Cell line sensitivity (viability, ATPlite); assay type: cell-based; conditions: Homo sapiens; Caki-1, Kidney; BME media, 72 hours; read-out: Sensitivity to Example 1 (IC50)
Protocol: as §1, §2

[6] = system: Capan2; assay: Cell line sensitivity (viability, ATPlite); assay type: cell-based; conditions: Homo sapiens, Capan-2; Capan2, Pancreatic; BME media, 72 hours; read-out: Sensitivity to Example 1 (IC50)
Protocol: as §1, §2

[7] = system: Detroit562; assay: Cell line sensitivity (viability, ATPlite); assay type: cell-based; conditions: Homo sapiens, Detroit 562; Detroit562, Head/Neck; BME media, 72 hours; read-out: Sensitivity to Example 1 (IC50)
Protocol: as §1, §2

[8] = system: Du145; assay: Cell line sensitivity (viability, ATPlite); assay type: cell-based; conditions: Homo sapiens, DU-145; Du145, Prostate; BME media, 72 hours; read-out: Sensitivity to Example 1 (IC50)
Protocol: as §1, §2

[9] = system: FaDu; assay: Cell line sensitivity (viability, ATPlite); assay type: cell-based; conditions: Homo sapiens, Head/Neck, BME media, 72 hours, read-out: Sensitivity to Example 1 (IC50)
Protocol: as §1, §2

[10] = system: Gist882; assay: Cell line sensitivity (viability, ATPlite); assay type: cell-based; conditions: Homo sapiens; Gist882, GIST; BME media, 72 hours; read-out: Sensitivity to Example 1 (IC50)
Protocol: as §1, §2

[11] = system: LNCaP; assay: Cell line sensitivity (viability, ATPlite); assay type: cell-based; conditions: Homo sapiens, Prostate, BME media, 72 hours, read-out: Sensitivity to Example 1 (IC50)
Protocol: as §1, §2

[12] = system: Ls174T; assay: Cell line sensitivity (viability, ATPlite); assay type: cell-based; conditions: Homo sapiens, Colon, BME media, 72 hours, read-out: Sensitivity to Example 1 (IC50)
Protocol: as §1, §2

[13] = system: Malme3M; assay: Cell line sensitivity (viability, ATPlite); assay type: cell-based; conditions: Homo sapiens, Malme-3M, Melanoma, BME media, 72 hours, read-out: Sensitivity to Example 1 (IC50)
Protocol: as §1, §2

[14] = system: MiaPaCa2; assay: Cell line sensitivity (viability, ATPlite); assay type: cell-based; conditions: Homo sapiens, MIA PaCa-2; MiaPaCa2, Pancreatic; BME media, 72 hours; read-out: Sensitivity to Example 1 (IC50)
Protocol: as §1, §2

[15] = system: NCI-H522; assay: Cell line sensitivity (viability, ATPlite); assay type: cell-based; conditions: Homo sapiens; NCI-H522, Lung; BME media, 72 hours; read-out: Sensitivity to Example 1 (IC50)
Protocol: as §1, §2

[16] = system: OVCAR-3; assay: Cell line sensitivity (viability, ATPlite); assay type: cell-based; conditions: Homo sapiens; OVCAR-3, Ovarian; BME media, 72 hours; read-out: Sensitivity to Example 1 (IC50)
Protocol: as §1, §2

[17] = system: PC3; assay: Cell line sensitivity (viability, ATPlite); assay type: cell-based; conditions: Homo sapiens, PC-3; PC3, Prostate; BME media, 72 hours; read-out: Sensitivity to Example 1 (IC50)
Protocol: as §1, §2

[18] = system: PL45; assay: Cell line sensitivity (viability, ATPlite); assay type: cell-based; conditions: PL45, Pancreatic; BME media, 72 hours; read-out: Sensitivity to Example 1 (IC50)
Protocol: as §1, §2

[19] = system: RKO; assay: Cell line sensitivity (viability, ATPlite); assay type: cell-based; conditions: Homo sapiens, Colon, BME media, 72 hours, read-out: Sensitivity to Example 1 (IC50)
Protocol: as §1, §2

[20] = system: SW620; assay: Cell line sensitivity (viability, ATPlite); assay type: cell-based; conditions: Homo sapiens, SW-620; SW620, Colon; BME media, 72 hours; read-out: Sensitivity to Example 1 (IC50)
Protocol: as §1, §2

[21] = system: Skov3; assay: Cell line sensitivity (viability, ATPlite); assay type: cell-based; conditions: Homo sapiens, SK-OV-3; Skov3, Ovarian; BME media, 72 hours; read-out: Sensitivity to Example 1 (IC50)
Protocol: as §1, §2

[22] = system: UMUC-3; assay: Cell line sensitivity (viability, ATPlite); assay type: cell-based; conditions: Homo sapiens, UMUC3; UMUC-3, Bladder; BME media, 72 hours; read-out: Sensitivity to Example 1 (IC50)
Protocol: as §1, §2

[23] = target: PKM2 (Homo sapiens, UniProt P14618); assay: Cell-Based Pyruvate Kinase Activity Assay, A549; set-up: host or cells: A549 or NCI-H1299 lung cancer cells; conditions: A549, 30 minutes with compound, n = 4; read-out: Cellular PKM2 activation EC50
Sequence of PKM2 (P14618 2-531 limits assumed): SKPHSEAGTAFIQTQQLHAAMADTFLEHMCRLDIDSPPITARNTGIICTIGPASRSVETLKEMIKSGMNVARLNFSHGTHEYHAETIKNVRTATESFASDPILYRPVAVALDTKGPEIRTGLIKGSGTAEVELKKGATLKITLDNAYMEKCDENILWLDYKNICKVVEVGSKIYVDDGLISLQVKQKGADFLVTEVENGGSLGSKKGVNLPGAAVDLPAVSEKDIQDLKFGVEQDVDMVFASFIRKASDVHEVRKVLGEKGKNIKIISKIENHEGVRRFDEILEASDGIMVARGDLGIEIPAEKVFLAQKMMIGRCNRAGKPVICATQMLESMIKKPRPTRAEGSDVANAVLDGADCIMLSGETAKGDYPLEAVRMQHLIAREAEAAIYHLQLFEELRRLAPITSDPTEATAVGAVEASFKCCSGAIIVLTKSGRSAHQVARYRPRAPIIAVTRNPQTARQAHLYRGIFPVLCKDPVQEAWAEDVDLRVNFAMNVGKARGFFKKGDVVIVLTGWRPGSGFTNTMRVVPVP
Protocol: Cell-Based Pyruvate Kinase Activity Assay
A549 or NCI-H1299 lung cancer cells were plated at 20,000 cells per well (96-well plate) in MEM media plus 10% FBS, with no additional glutamine or pyruvate. Following overnight incubation, cells were washed with PBS followed by 4 hour incubation in MEM media. Compounds were added to the cells in 1% final concentration DMSO. After 30 minutes, cells were lysed, and pyruvate kinase activity in lysates was determined by Pyruvate Kinase Activity Assay (BioVision, Milpitas, Calif.). Maximum velocity values were calculated from the kinetic data, and AC50 values were determined using Prism GraphPad Software (La Jolla, Calif.). Compound washout experiments were as described above, except after a 30 minute incubation with Example 244 (469 nM), the cells were washed with PBS followed by the addition of MEM media for the indicated time period, lysed and pyruvate kinase activity determined. Results are tabulated in Table 3 and presented graphically in FIGS. 6A and 6B.

What does the source list for O=C(c1cc(C(F)(F)F)n[nH]1)N(Cc1ccc(O)cc1F)CC1CCC1 [Example 1, N-(cyclobutylmethyl)-N-(2-fluoro-4-hydroxybenzyl)-3-(trifluoromethyl)-1H-pyrazole-5-carboxamide]?
EC50 [1]: 156 nM; IC50 [2]: > 30000 nM; IC50 [3]: 2300 nM; IC50 [4]: > 30000 nM; IC50 [5]: 80 nM; IC50 [6]: > 30000 nM; IC50 [7]: 3000 nM; IC50 [8]: > 30000 nM; IC50 [9]: > 30000 nM; IC50 [10]: 800 nM; IC50 [11]: > 30000 nM; IC50 [12]: > 30000 nM; IC50 [13]: > 30000 nM; IC50 [14]: 200 nM; IC50 [15]: > 30000 nM; IC50 [16]: 20 nM; IC50 [17]: 100 nM; IC50 [18]: > 30000 nM; IC50 [19]: > 30000 nM; IC50 [20]: 200 nM; IC50 [21]: 8000 nM; IC50 [22]: > 30000 nM; EC50 [23]: 260 ± 120 nM
